Reference: patent US10590422B2, “Anticancer therapeutic intervention” (PHYZAT BIOPHARMACEUTICALS, LDA., priority 2017, dated 2020)

Columns and labels:
[1] = tested on: human colon cancer HTC-116 cells xenograft tumour; test: Xenograft tumour model, relative tumour volume, intratumoral injections; assay type: in vivo, NMRI nu/nu mice; settings: immune deficient mice, subcutaneous HTC-116; 10 μg intratumoral (50 μL) every other day; versus vehicle (Injectin); FIG. 23
Experimental: Human colon cancer HTC-116 cells grown in tissue culture and 10^7 cells per mouse were injected into the hind flank of female NMRI nu/nu mice. Once tumours have developed and tumour volumes reached randomisation criteria, therapy will commence by every other day […], intra-tumoral injections. A vehicle treated group was included in the study as control. Female immunodeficient NMRI nu/nu mice from Charles River were used. The animals were delivered at the age of 4-6 weeks and are used for implantation after at least 1 week of quarantine. […] During the experiments, animals were monitored at least daily. […]
The tumour volume was determined by a two-dimensional measurement with callipers on the day of randomization (Day 0) and then twice weekly. Tumour volumes were calculated according to the following equation: Tumour Vol [mm^3]=a [mm]×b^2 [mm^2]×0.5 […]
The relative volume of an individual tumour on day X (RTVx) was calculated by dividing the absolute volume [mm^3] of the respective tumour on day X (Tx) by the absolute volume of the same tumour on the day of randomization, i. e. on day 0 (T0), multiplied by 100, as shown by the following equation: […]
Group median and range (alternatively geometric mean+/−SEM) of RTVs were calculated, considering only the tumours of animals that were alive on the day in question (for median). […]

[2] = tested on: human colon cancer HTC-116 cells; test: Cell proliferation assay (calcein-AM) in human colon cancer HTC-116 cells; assay type: cell-based; settings: for Decrease in cell proliferation greater the higher the concentration of Injectin in the siRNA:Injectin complexes: Injectin 0.037% to 0.15%; for cell proliferation / proliferation: treatment 6 h; for proliferation: at 72 h, 0.17% Lipofectamine 2000 or 0.1% Injectin, FIGS. 19B and 20B
In short: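 HCT-116 cells in McCoy's 5A with 10% FBS, plated 24 h, then exposed to test items at 37° C, 5% CO2; after serum and antibiotic restoration, grown a further 72 h. Viable cells stained with 2 μM calcein-AM for 30 min, fluorescence read at 485/530 nm; percent cell number = sample/control × 100.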

[3] = 72 h exposure, 0.1% Injectin, FIG. 14
[4] = 72 h exposure, increasing Injectin (0.037% to 0.15%), FIG. 15

Row | Substance | reduction in relative tumour volume [1] | Enhancement of effects of 5-fluoruracil compared with SEQ ID NO: 267/397/398 ([2]; 5-FU 10 μM, 72 h, FIG. 17B) | Decrease in cell proliferation greater the higher the concentration of Injectin in the siRNA:Injectin complexes ([2]; 72 h, FIG. 15) | Effect of siRNA-LAT1 SEQ ID NO: 58/387/388 upon proliferation in combination with the siRNA-ASCT2 ([2]; 72 h, siRNA-ASCT2 at non-efficacious conditions (0.037% Injectin), FIG. 18) | cell proliferation [2, 3] | cell proliferation [2, 4] | proliferation [2] | proliferation (siRNA-LAT1 alone) ([2]; 25 nM, 72 h exposure, Injectin, FIG. 18A) | Effect of 5-fluoruracil upon proliferation in combination with the siRNA ([2]; 5-FU 10 μM, siRNA 25 nM, 72 h, 0.037% Injectin, FIG. 17A) | Effect of 5-fluoruracil upon proliferation in combination with the siRNA ([2]; 5-FU 3 and 10 μM, siRNA 5 and 25 nM, concentration dependent, 72 h, 0.25% Lipofectamine 2000, FIG. 16) | Effect of cisplatin upon proliferation in combination with the siRNA ([2]; Cisp 3 and 10 μM, siRNA 5 and 25 nM, concentration dependent, 72 h, 0.25% Lipofectamine 2000, FIG. 16) | Effect of oxaliplatin upon proliferation in combination with the siRNA ([2]; Oxa 1 and 3 μM, siRNA 5 and 25 nM, concentration dependent, 72 h, 0.25% Lipofectamine 2000, FIG. 16)
1 | 278/403/404 (sense UGCCACGGUCGCCUCUGAGAATT; antisense UUCUCAGAGGCGACCGUGGCATT; siRNA; sugars by position and backbone not given here; further chemistry not fully specified) | statistically significant | more marked | particularly evident | enhanced | decreased | decreased | significantly decreased |  |  |  |  | 
2 | 58/387/388 (sense CUUCGCCACCUACCUGCUCAATT; antisense UUGAGCAGGUAGGUGGCGAAGTT; siRNA; sugars by position and backbone not given here; further chemistry not fully specified) | statistically significant |  | particularly evident |  | decreased | decreased | significantly decreased | significant decrease | enhanced | significantly enhanced | significantly enhanced | significantly enhanced
